# Measurements: patent US11266578B2, “Composition, kit and method for coloring keratinous fibers” (Henkel AG & Co. KGaA, priority 2017, dated 2022)
# Experiment: Water-solubility at 1 wt. % in distilled water
# Format: physicochemical
# Settings: 1 wt. % in ~pH7 distilled water at RT; clear = soluble, turbid = insoluble
# Protocol: Water-solubility of a chemical compound, and, for instance, water insolubility of condensation-curable amino-silicone pre-polymers, can be provided by the supplier. It can also be confirmed or determined as follows. Water-solubility was assessed by mixing 1 wt. % of the material in near neutral (˜pH7) distilled water at RT, followed by a brief vortex for homogeneity. A clear solution indicated a water-soluble material, whereas turbidity indicated an at least partly water-insoluble material.
row,SMILES,water-solubility
1,"CCO[Si](CCCN1CCC[Si]1(OCC)OCC)(OCC)OCC [SIT8187.2, 1-(3-(triethoxysilyl)propyl)-2,2-diethoxi-1-aza-2-silacyclopentane]",insoluble
2,"CCO[Si](CCCNCCC[Si](OCC)(OCC)OCC)(OCC)OCC [SIB1824.5, bis(triethoxy-silylpropyl) amine]",insoluble
3,"C[Si](C)(CCCN)O[Si](C)(C)CCCN [GP-967, Bis 3-aminopropyl tetramethyldisiloxane]",turbid dispersion
4,"CCO[Si](CCCN)(OCC)OCC [Dynasylan® AMEO, 3-aminopropyltriethoxysilane]",soluble
5,CCO[Si](CCCNCCN)(OCC)OCC [N-(2-aminoethyl)-3-aminopropyltriethoxysilane],water soluble
6,CCO[Si](C)(C)CCCN [3-aminopropyldimethylethoxysilane],water soluble

# Same assay, conditions: Table 17
row,SMILES,solubility (in Material Type)
1,CCO[Si](CCCNCCN)(OCC)OCC [N-(2-aminoethyl)-3-aminopropyltriethoxysilane],silane (soluble)
2,"C[Si]1(C)O[Si](C)(C)O[Si](C)(C)O[Si](C)(C)O[Si](C)(C)O1 [Decamethylcyclopenta-siloxane, Decamethylcyclopentasiloxane]",(soluble)
3,CCO[Si](C)(CCCN)OCC [3-Aminopropylmethyl-diethoxysilane],silane (soluble)
4,CCO[Si](C)(CCCNCCC[Si](C)(OCC)OCC)OCC [Bis[methyldiethoxysilyl-propyl] amine],silane (non soluble)
